This experiment concerns ATF4 translation. The experiment is described as follows: ATF4 Nano Luciferase reporter integrated stress response (ISR) assay in H4 ATF4-NLuc cells. It is filed as cell-based, human. The following applies: Homo sapiens, 0.5 h, H4 ATF4-NLuc (clone 17) cells, compound 30 minutes, then sodium arsenite for 6 additional hours, luminescence readout. From the text: Cellular stress leads to activation of the integrated stress response pathway through one of four eukaryotic initiation factor 2a kinases and halts global translation, while allowing for the translation of select transcripts like ATF4 (activating transcription factor 4) that are important for the response to cellular stress. During normal conditions, small open reading frames (ORFs) in the 5′ UTR of ATF4 occupy the ribosome and prevent translation of the coding sequence of ATF4. During stress conditions however, the ribosome scans past these upstream ORFs and preferentially begins translation at the coding sequence of ATF4. In this way, the translation, and thus protein level of ATF4 is a readout of ISR pathway activation. Thus, a fusion of the uORFs and the beginning of the coding sequence of ATF to a common cellular reporter like nano-luciferase allows for a sensitive and high-throughput readout of ISR pathway activity.
Compounds as provided herein were tested in the following assay. The ATF4 Nano Luciferase reporter was constructed by fusing the human full length 5′ untranslated region (5′-UTR) and a small portion of the coding sequence of the ATF4 gene upstream of the Nano Luciferase (NLuc) coding sequence lacking it's start codon. Specifically, nucleotides +1 through +364 (relative to the transcriptional start site) of ATF4 transcript variant 2 (NCBI NM_182810.2) flanked 5′ by EcoRI and 3′ by BamHI restriction enzyme sites were synthesized and cloned into the EcoRI/BamHI cloning sites of pLVX-EF1a-IRES-Puro lentivirus vector (Clontech). Lentiviral particles were produced with Lenti-X single shots (VSV-G, Clontech) according to the manufacturer's instructions and used to transduce a human H4 neuroglioma cell line (ATCC HTB-148). H4 cells were selected with 1.25 μg/mL Puromycin, and clonal cell lines generated by limiting dilution. We utilized this cell line to generate an integrated stress response (ISR) assay to evaluate the activity of ISR pathway inhibitors via luminescence readout. The H4 ATF4-NLuc (clone 17) cell line is plated at a density of […] in 96-well or 384-well respectively in DMEM+[…]. 24-hours later test compounds diluted in dimethyl sulfoxide (DMSO) are added for 30 minutes at 37° C., followed by ISR pathway activation with […] sodium arsenite aqueous solution for 6 additional hours. Nano Glo luciferase reagent (N1150, Promega) is added according to manufacturer instructions and the luminescence signal (corresponding to the level of ATF4 translation and thus ISR pathway activation) is read with a standard plate reader with luminescence detection capabilities. […] In the tables below, activity of the tested compounds is provided, and in Table 3 as follows: […]; ++=IC50 1-10 μM; +=IC50>10 μM.

The mark [1] stands for this setting: read-out: Biological Example 1 (ATF4 translation, IC50 nM).

The results in this text go back to patent publication US12139478B2, “Compounds, compositions and methods” (Denali Therapeutics Inc., priority 2017, dated 2024).

Where two headings read alike, the source gives them in different places.

Turning to `O=C(COc1ccc(Cl)c(F)c1)N[C@@H]1CC[C@@H](c2nnc(COC(F)(F)F)o2)OC1` [Example 30, 2-(4-chloro-3-fluorophenoxy)-N-((3R,6S)-6-(5-((trifluoromethoxy)methyl)-1,3,4-oxadiazol-2-yl)tetrahydro-2H-pyran-3-yl)acetamide], the IC50 (read-out: Activity) is under 1000 nM.

Turning to `O=C(COc1ccc(Cl)cc1F)N[C@@H]1CC[C@@H](c2nnc([C@H]3C[C@@H](OC(F)(F)F)C3)o2)OC1` [Example 31, 2-(4-chloro-2-fluoro-phenoxy)-N-[(3R,6S)-6-[5-[3-cis-(trifluoromethoxy)cyclobutyl]-1,3,4-oxadiazol-2-yl]tetrahydropyran-3-yl]acetamide], the IC50 (read-out: Activity) was under 1000 nM.

On to `O=C(COc1ccc(F)cc1)N[C@H]1CO[C@H](c2nnc([C@H]3C[C@@H](OC(F)(F)F)C3)o2)C2CC21` (stereo partly drawn) [Example 32, 2-(4-fluorophenoxy)-N-((2S,5R)-2-(5-(3-cis-(trifluoromethoxy)cyclobutyl)-1,3,4-oxadiazol-2-yl)-3-oxabicyclo[4.1.0]heptan-5-yl)acetamide], for which the IC50 (read-out: Activity) was under 1000 nM.

As to `COC1C[C@@H](c2nnc([C@H]3C[C@@H](OC(F)(F)F)C3)o2)OC[C@@H]1NC(=O)COc1ccc(F)cc1` (stereo partly drawn) [Example 33, 2-(4-fluorophenoxy)-N-((3S,6S)-4-methoxy-6-(5-(3-cis-(trifluoromethoxy)cyclobutyl)-1,3,4-oxadiazol-2-yl)tetrahydro-2H-pyran-3-yl)acetamide], the IC50 is under 1000 nM (read-out: Activity) and 421 nM under setting [1].

For the compound `O=C(COc1ccc(F)cc1F)NC12CCC(c3nnc([C@H]4C[C@@H](OC(F)(F)F)C4)o3)(CC1)OC2` [Example 34, 2-(2,4-difluorophenoxy)-N-[1-[5-[3-cis-(trifluoromethoxy)cyclobutyl]-1,3,4-oxadiazol-2-yl]-2-oxabicyclo[2.2.2]octan-4-yl]acetamide], the IC50 (read-out: Activity) was under 1000 nM.

As for `O=C(COc1ccc(F)cc1)N[C@H]1CO[C@H](c2nnc([C@H]3C[C@@H](OC(F)(F)F)C3)o2)CC1(F)F` [Example 35, N-[(3S,6S)-4,4-difluoro-6-[5-[3-cis-(trifluoromethoxy)cyclobutyl]-1,3,4-oxadiazol-2-yl]tetrahydropyran-3-yl]-2-(4-fluorophenoxy)acetamide], where the note is “read-out: Activity”, the IC50 is under 1000 nM.

`CO[C@H]1C[C@@H](NC(=O)COc2ccc(F)cc2)CO[C@@H]1c1nnc([C@H]2C[C@@H](OC(F)(F)F)C2)o1` [Example 36, 2-(4-fluorophenoxy)-N-((3R,5S,6S)-5-methoxy-6-(5-(3-cis-(trifluoromethoxy)cyclobutyl)-1,3,4-oxadiazol-2-yl)tetrahydro-2H-pyran-3-yl)acetamide]: the IC50 (read-out: Activity) was under 1000 nM.

Consider `O=C(COc1ccc(F)cc1F)N[C@@H]1CC[C@@H](c2nnc([C@H]3C[C@@H](OC(F)(F)F)C3)o2)OC1` [Example 37, 2-(2,4-difluorophenoxy)-N-[(3R,6S)-6-[5-[3-cis-(trifluoromethoxy)cyclobutyl]-1,3,4-oxadiazol-2-yl]tetrahydropyran-3-yl]acetamide], for which the IC50 (read-out: Activity) is under 1000 nM.

As to `O=C(COc1ccc(F)cc1)N[C@@H]1CC[C@@H](c2nc(C3CC(OC(F)(F)F)C3)no2)OC1` (some centres unmarked) [Example 38], the IC50 (read-out: Activity) was under 1000 nM.

For the compound `O=C(COc1ccc(C(F)(F)F)nc1)N[C@@H]1CC[C@@H](c2nnc([C@H]3C[C@@H](OC(F)(F)F)C3)o2)OC1` [Example 39, N-[(3R,6S)-6-[5-[3-cis-(trifluoromethoxy)cyclobutyl]-1,3,4-oxadiazol-2-yl]tetrahydropyran-3-yl]-2-[[6-(trifluoromethyl)-3-pyridyl]oxy]acetamide], the IC50 is, setting by setting: (read-out: Activity) under 1000 nM; under setting [1], 36 nM.

In the case of `O=C(COc1ccc(C(F)(F)F)cc1)N[C@@H]1CC[C@@H](c2nnc([C@H]3C[C@@H](OC(F)(F)F)C3)o2)OC1` [Example 40, N-[(3R,6S)-6-[5-[3-cis-(trifluoromethoxy)cyclobutyl]-1,3,4-oxadiazol-2-yl]tetrahydropyran-3-yl]-2-[4-(trifluoromethyl)phenoxy]acetamide], the IC50 is under 1000 nM (read-out: Activity) and 2.4 nM under setting [1].

In the case of `O=C(COc1ccc(Cl)cc1)N[C@H]1CO[C@H](c2nnc([C@H]3C[C@@H](OC(F)(F)F)C3)o2)CC1(F)F` [Example 41, N-[(3S,6S)-4,4-difluoro-6-[5-[3-cis-(trifluoromethoxy)cyclobutyl]-1,3,4-oxadiazol-2-yl]tetrahydropyran-3-yl]-2-(4-chlorophenoxy)acetamide], the IC50 was under 1000 nM (read-out: Activity) and 13.5 nM under setting [1].

For the compound `O=C(N[C@@H]1CC[C@@H](c2nnc(C3CC(OC(F)(F)F)C3)o2)OC1)c1cn2ccc(Br)cc2n1` (stereo partly drawn) [Example 42, 7-bromo-N-((3R,6S)-6-(5-(3-cis-(trifluoromethoxy)cyclobutyl)-1,3,4-oxadiazol-2-yl)tetrahydro-2H-pyran-3-yl)imidazo[1,2-a]pyridine-2-carboxamide], the IC50 (read-out: Activity) is under 1000 nM.

In the case of `O=C(N[C@@H]1CC[C@@H](c2nnc(C3CC(OC(F)(F)F)C3)o2)OC1)c1nc2cc(Cl)ccc2s1` (stereo partly drawn) [Example 43, 5-chloro-N-((3R,6S)-6-(5-(3-cis-(trifluoromethoxy)cyclobutyl)-1,3,4-oxadiazol-2-yl)tetrahydro-2H-pyran-3-yl)benzo[d]thiazole-2-carboxamide], the IC50 (read-out: Activity) was under 1000 nM.

Regarding `O=C(N[C@@H]1CC[C@@H](c2nnc(C3CC(OC(F)(F)F)C3)o2)OC1)c1cc2ccc(Cl)cc2cn1` (stereo partly drawn) [Example 44, 7-chloro-N-((3R,6S)-6-(5-(3-cis-(trifluoromethoxy)cyclobutyl)-1,3,4-oxadiazol-2-yl)tetrahydro-2H-pyran-3-yl)isoquinoline-3-carboxamide], the IC50 (read-out: Activity) is under 1000 nM.

Turning to `O=C(N[C@@H]1CC[C@@H](c2nnc(C3CC(OC(F)(F)F)C3)o2)OC1)C1CCc2cc(Cl)ccc2O1` (some centres unmarked) [Example 45], the IC50 (read-out: Activity) is under 1000 nM.

Turning to `O=C(COc1ccc(Cl)cc1)N[C@@H]1CC[C@@H](C(O)COC2CC(OC(F)(F)F)C2)OC1` (some centres unmarked) [Example 46], the IC50 (read-out: Activity) is under 1000 nM.

With `O=C(COC1CC(OC(F)(F)F)C1)NC12CCC(c3cc(-c4ccc(Cl)c(F)c4)no3)(CC1)OC2` (centres unmarked) [Example 47], the IC50 (read-out: Activity) is under 1000 nM.

`O=C(COC1CC(OC(F)(F)F)C1)NC12CCC(c3cnn(-c4ccc(Cl)c(F)c4)c3)(CC1)OC2` (centres unmarked) [Example 48]: the IC50 (read-out: Activity) was under 1000 nM.

On to `O=C(COC1CC(OC(F)(F)F)C1)NC12CCC(C3CC(c4ccc(Cl)c(F)c4)=NO3)(CC1)OC2` (centres unmarked) [Example 49], for which, under “read-out: Activity”, the IC50 was over 10000 nM.

With `O=C(COC1CC(OC(F)(F)F)C1)N[C@@H]1CC[C@@H](c2cc(-c3ccc(Cl)c(F)c3)no2)OC1` (some centres unmarked) [Example 50], the IC50 by setting is: (read-out: Activity) under 1000 nM; under setting [1], 38 nM.

For `O=C(N[C@@H]1CC[C@@H](c2nnc(C3CC(OC(F)(F)F)C3)o2)OC1)N1CCC(OC(F)(F)F)C1` (some centres unmarked) [Example 51], the IC50 (read-out: Activity) was under 1000 nM.

For the compound `O=C(COC1CC(OC(F)(F)F)C1)N[C@@H]1CC[C@@H](c2ccn(-c3ccc(Cl)cc3)n2)OC1` (some centres unmarked) [Example 52], the IC50 by setting is: (read-out: Activity) under 1000 nM; under setting [1], 43 nM.

Turning to `O=C(COc1ccc(F)cc1)N[C@@H]1CC[C@@H](c2noc(C3CC(OC(F)(F)F)C3)n2)OC1` (some centres unmarked) [Example 53], where the note is “read-out: Activity”, the IC50 was under 1000 nM.

Turning to `O=C(COC1CC(OC(F)(F)F)C1)N[C@@H]1CC[C@@H](c2cc(-c3ccc(Cl)cc3)no2)OC1` (some centres unmarked) [Example 54], under “read-out: Activity”, the IC50 is under 1000 nM.

Turning to `O=C(COc1ccc(Cl)c(F)c1)N[C@@H]1CC[C@@H](c2nnc(COC(F)(F)F)o2)OC1` [Example 55], the IC50 under setting [1] is 22.7 nM.
